According to patent US20100273732A1, “COMBINATION METHODS OF TREATING CANCER” (priority 2003, published 2010):
Like-named read-outs stand apart in the source and are kept apart here. Each block holds one molecule with its values, some of them ahead of it.

Legend:
[1] = tested on: T24 (bladder carcinoma) cells; test: alamarBlue proliferation inhibition, drug combination experiments, T24; type: cell-based; conditions: Homo sapiens, 96 h, read-out: 50% inhibition Effective Dose, T24, 4 days
Method: (§1) Drug combination experiments were performed on five human cancer cell lines: T24 (bladder carcinoma), LnCap (prostate), MCF7 (breast), DLCL (non-Hodgkin's lymphoma) and LCC18 (colon carcinoid). Each cell line was cultured and incubated at 37° C. in its required medium: MEM a (10% FCS), RPMI 1640 (10% FCS), DME HG (10% FCS), enhanced RPMI (10% FCS), and Hites medium (5% FCS), respectively.
(§2) DLCL, a suspension cell line, was plated on 96 well plates on the same day of the experiment. For T24, LnCap, DLCL and LCC18, 200 μL containing 2000 cells were plated into each well. For MCF7, 4000 cells/well were plated to account for the line's slower cell cycle.
(§3) Cells that received no treatment served as a control group.
(§4) To administer treatment to adherent cell lines (T24, LnCap, MCF7), media in each well was aspirated and replaced with 200 μL of media containing desired concentration of drug or drugs. For all other cell lines ([…] and DLCL), 22 μL of media containing 10 times the desired concentration of drug or drugs was added to 200 μL of media in each well.
(§5) After treatment, cells were incubated at 37° C. for 4 days. On the fourth day, each well was treated with 20 μL of alamarBlur™, an aqueous dye, and incubated for 4 hours at 37° C. The reduction of this dye, when absorbed by cells, is greater in proliferating cells than in non-proliferating cells because of an increased concentration of NADPH, FADH, FMNH and NADH. The reduction was measured by fluorescence using a SpectaMax GeminiXS® spectrofluorometric microtiter well plate reader (Molecular Devices Corporation, Sunnyvale, Calif.). Data was expressed as fluorescence emission intensity units as a function of time of incubation and analyzed using SOFTmax PRO® v. 4.0 software (Molecular Devices Corp. Sunnyvale, Calif.). In order to assess the percent inhibition of cell growth four days after drug treatment, the following formula was used:
(§6) 100−(Mean Intensity Units/Well with Identical Treatment)*100(Mean Intensity Units/Well in Control Group)
(§7) The concentrations used for treatment with each drug are based on the dose that inhibits 50% of proliferation for each drug. The following concentrations were tested:
(§8) a) 50% effective dose/4; b) 50% effective dose/2; c) 50% effective dose; d) 50% effective dose*2; and e) 50% effective dose*4. […] A polynomial relationship was defined between drug concentration and percent inhibition using various concentrations, and this function was used to predict the concentration of each drug required to inhibit proliferation of 50% of the cells.
(§9) The following criteria were established for assessing additive, synergistic and antagonistic interactions: […]

[2] = tested on: LnCap (prostate) cells; test: alamarBlue proliferation inhibition, drug combination experiments, LnCap; type: cell-based; conditions: Homo sapiens, 96 h
Method: as §1, §2, §3, §4, §5, §6, §7, §8, §9

[3] = tested on: T24 cell line; test: Cell proliferation and viability count, SAHA and 5-azacytidine, T24; type: cell-based, human; conditions: 200 nM 5-azacytidine (27.5 h pre-incubation), 5 μM SAHA or both
Method: Cells were cultured in T-150 flasks at 37° C. in RPMI with 10% FCS. Cells were diluted in a complete medium to a density of 5.0×10^4 cells/ml. The cells were incubated at 37° C. for 14 hours before treatment with 5-azacytidine to allow cells to adhere to the wells.
Concentrations of 5-azacytidine were prepared by serial dilution of from a 1 mM stock. After 14-hour incubation in complete medium, wells were aspirated and the medium was replaced to 1 ml of 5-azacytidine at the indicated concentration.
(§10) To assay for proliferation and viability, triplicate samples of cells were harvested and counted for proliferation and viability at the indicated time points as described above in Example 2.

[4] = tested on: LnCap cell line; test: Cell proliferation and viability count, SAHA and gemcitabine, LnCap; type: cell-based, human; conditions: 2 nM gemcitabine, 5 μM SAHA or both, 72 hours
Method: Cells were plated at a density of 2.5×10^4 cells/ml in RMPI medium with 10% FCS, and were allowed to adhere to wells.
Gemcitabine was reconstituted in medium and the pH was adjusted to 7 using 1N NaOH. Concentrations of gemcitabine were prepared by serial dilution of gemcitabine in complete medium.
The cells were then cultured with medium containing the compound or combination of compounds.
as §10

[5] = tested on: carcinogen-induced (N-methylnitrosourea) mammary tumors; conditions: rats; SAHA in diet over 130 days; cited from earlier work
[6] = in combination with SAHA 0.625 μM
[7] = in combination with SAHA 1.25 μM
[8] = in combination with SAHA 5.0 μM
[9] = in combination with SAHA 10.0 μM
[10] = read-out: 50% inhibition Effective Dose, LnCap, agent alone, 4 days
[11] = read-out: 50% inhibition Effective Dose, LnCap, in combination with SAHA 0.125 μM, 4 days
[12] = read-out: 50% inhibition Effective Dose, LnCap, in combination with SAHA 0.5 μM, 4 days
[13] = read-out: 50% inhibition Effective Dose, LnCap, in combination with SAHA 1.0 μM, 4 days
[14] = read-out: 50% inhibition Effective Dose, LnCap, in combination with SAHA 2.0 μM, 4 days
[15] = in combination with SAHA 2.5 μM
[16] = read-out: 50% inhibition Effective Dose, LnCap, in combination with SAHA 0.25 μM, 4 days

IC50 ([1]; agent alone): 14000 nM
IC50 [1, 6]: 13100 nM
IC50 [1, 7]: 11500 nM
IC50 [1, 8]: 2700 nM
IC50 [1, 9]: 1500 nM
IC50 [2, 10]: 3000 nM
IC50 [2, 11]: 5200 nM
IC50 [2, 12]: 1600 nM
IC50 [2, 13]: 1900 nM
IC50 [2, 14]: 990 nM
Compound: O=c1[nH]cc(F)c(=O)[nH]1 [5-FU, 5-Fluorouracil]

IC50 ([1]; agent alone): 2.1 nM
IC50 [1, 6]: 0.51 nM
IC50 [1, 7]: 0.72 nM
IC50 [1, 15]: 0.59 nM
IC50 [1, 8]: 0.29 nM
IC50 [1, 9]: 0.05 nM
IC50 [2, 10]: 2.1 nM
IC50 [2, 11]: 1.2 nM
IC50 [2, 16]: 1.2 nM
IC50 [2, 12]: 0.6 nM
IC50 [2, 13]: 0.34 nM
IC50 [2, 14]: 0.12 nM
Compound: CC(=O)O[C@@]12CO[C@@H]1C[C@H](O)[C@@]1(C)C(=O)[C@H](O)C3=C(C)[C@@H](OC(=O)[C@H](O)[C@@H](NC(=O)OC(C)(C)C)c4ccccc4)C[C@@](O)([C@@H](OC(=O)c4ccccc4)[C@H]21)C3(C)C [Docetaxel]

IC50 ([1]; agent alone): 5.1 nM
IC50 [1, 6]: 4.1 nM
IC50 [1, 7]: 2.8 nM
IC50 [1, 15]: 1.9 nM
IC50 [1, 8]: 1.4 nM
IC50 [1, 9]: 0.28 nM
IC50 [2, 10]: 5.1 nM
IC50 [2, 11]: 5.1 nM
IC50 [2, 16]: 4.1 nM
IC50 [2, 12]: 3.8 nM
IC50 [2, 13]: 1.9 nM
IC50 [2, 14]: 1.9 nM
Compound: CCc1c2c(nc3ccc(OC(=O)N4CCC(N5CCCCC5)CC4)cc13)-c1cc3c(c(=O)n1C2)COC(=O)[C@]3(O)CC [Irinotecan]

Second part, the molecule before the results:

Compound: Nc1ncn([C@@H]2O[C@H](CO)[C@@H](O)[C@H]2O)c(=O)n1 [5-azacytidine]
Effect on cell proliferation (FIG. 3) [3]: significantly inhibited proliferation

Compound: O=C(CCCCCCC(=O)Nc1ccccc1)NO [SAHA, suberoylanilide hydroxamic acid]
Effect on cell proliferation (FIG. 2) [4]: significantly inhibited proliferation
Effect on cell proliferation (FIG. 3) [3]: significantly inhibited proliferation
Development and continued growth of mammary tumors [5]: effective at inhibiting the development and continued growth

Compound: Nc1ccn([C@@H]2O[C@H](CO)[C@@H](O)C2(F)F)c(=O)n1 [gemcitabine]
Effect on cell proliferation (FIG. 2) [4]: small effect
